Experimental findings from ChEMBL document CHEMBL1921717, “Benzothiazole-containing hydroxamic acids as histone deacetylase inhibitors and antitumor agents” (Bioorg Med Chem Lett, 2011) are described below.

One assay deals with NCI-H460. Description: Cytotoxicity against human NCI-H460 cells. The format is functional, cell-based.
For assay [1], the target named is Histone deacetylase 4 (Homo sapiens) (UniProt P56524). Description: Inhibition of HDAC4 in human HL60 cells assessed as increase in histone H4 acetylation at 1 ug/ml after 24 hrs by Western blot analysis. Format: cell-based. To be noted: HL-60. (In general: In western blotting, separated proteins are transferred to a membrane and probed.)
The target of assay [2] is Histone deacetylase 3 (Homo sapiens) (UniProt O15379). The assay can be described thus: Inhibition of HDAC3 in human HL60 cells assessed as increase in histone H4 acetylation at 1 ug/ml after 24 hrs by Western blot analysis. Format: cell-based. Particulars: HL-60.
For the next assay, the system named is MCF7. The assay can be described thus: Cytotoxicity against human MCF7 cells. The format is functional, cell-based.
The target in assay [3] is Histone deacetylase 4 (Homo sapiens) (UniProt P56524). Description: Inhibition of HDAC4 in human SW620 cells assessed as increase in histone H3 acetylation at 1 ug/ml after 24 hrs by Western blot analysis. Format: cell-based. To be noted: SW-620.
The subject of another assay is PC-3. The assay can be described thus: Cytotoxicity against human PC3 cells. Format: functional, cell-based.
A further assay deals with ASPC1. The assay can be described thus: Cytotoxicity against human AsPC1 cells. The format is functional, cell-based.
Assay [4] concerns the target Histone deacetylase 3 (Homo sapiens) (UniProt O15379). The assay can be described thus: Inhibition of HDAC3 in human SW620 cells assessed as increase in histone H3 acetylation at 1 ug/ml after 24 hrs by Western blot analysis. The format is cell-based. To be noted: SW-620.
The next assay deals with SW-620. Description: Cytotoxicity against human SW620 cells. Format: functional, cell-based.

Molecules are shown by their SMILES. In brackets after ≈: the same amount, converted by molar mass. Activity calls are given as the source filed them. The rule behind the calls is not given here. A value given as a limit tells only on which side of the number the result lay.

Histone deacetylase 4 (Homo sapiens), sequence (P56524 whole entry): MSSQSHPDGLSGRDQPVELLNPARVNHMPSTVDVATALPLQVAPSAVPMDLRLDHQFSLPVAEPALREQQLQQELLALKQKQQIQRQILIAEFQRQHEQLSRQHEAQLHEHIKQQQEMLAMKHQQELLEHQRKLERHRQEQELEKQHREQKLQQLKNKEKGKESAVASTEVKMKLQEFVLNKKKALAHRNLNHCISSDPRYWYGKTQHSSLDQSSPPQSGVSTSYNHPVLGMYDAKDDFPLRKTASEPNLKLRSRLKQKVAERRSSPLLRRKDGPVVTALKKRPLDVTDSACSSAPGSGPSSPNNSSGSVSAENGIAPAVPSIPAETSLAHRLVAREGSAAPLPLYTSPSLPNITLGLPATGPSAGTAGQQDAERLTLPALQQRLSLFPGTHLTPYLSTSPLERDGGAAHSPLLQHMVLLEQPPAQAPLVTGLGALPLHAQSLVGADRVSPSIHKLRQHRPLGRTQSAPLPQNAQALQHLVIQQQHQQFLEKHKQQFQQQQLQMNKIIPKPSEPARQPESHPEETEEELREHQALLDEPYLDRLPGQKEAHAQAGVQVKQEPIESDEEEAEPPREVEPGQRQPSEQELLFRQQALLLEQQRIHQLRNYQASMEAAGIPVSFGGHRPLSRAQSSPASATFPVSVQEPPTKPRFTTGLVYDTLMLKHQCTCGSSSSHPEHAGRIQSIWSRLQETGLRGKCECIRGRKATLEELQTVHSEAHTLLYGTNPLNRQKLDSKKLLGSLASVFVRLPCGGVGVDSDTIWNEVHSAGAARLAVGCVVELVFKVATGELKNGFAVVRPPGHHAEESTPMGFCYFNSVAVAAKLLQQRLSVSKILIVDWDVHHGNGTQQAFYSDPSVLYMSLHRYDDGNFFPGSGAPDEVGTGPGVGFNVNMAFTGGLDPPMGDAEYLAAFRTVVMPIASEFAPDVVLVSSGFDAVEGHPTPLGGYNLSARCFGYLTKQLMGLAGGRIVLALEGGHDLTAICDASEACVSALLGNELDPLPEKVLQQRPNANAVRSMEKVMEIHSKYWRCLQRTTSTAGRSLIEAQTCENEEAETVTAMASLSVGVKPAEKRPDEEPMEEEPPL
Histone deacetylase 3 (Homo sapiens), sequence (O15379 whole entry): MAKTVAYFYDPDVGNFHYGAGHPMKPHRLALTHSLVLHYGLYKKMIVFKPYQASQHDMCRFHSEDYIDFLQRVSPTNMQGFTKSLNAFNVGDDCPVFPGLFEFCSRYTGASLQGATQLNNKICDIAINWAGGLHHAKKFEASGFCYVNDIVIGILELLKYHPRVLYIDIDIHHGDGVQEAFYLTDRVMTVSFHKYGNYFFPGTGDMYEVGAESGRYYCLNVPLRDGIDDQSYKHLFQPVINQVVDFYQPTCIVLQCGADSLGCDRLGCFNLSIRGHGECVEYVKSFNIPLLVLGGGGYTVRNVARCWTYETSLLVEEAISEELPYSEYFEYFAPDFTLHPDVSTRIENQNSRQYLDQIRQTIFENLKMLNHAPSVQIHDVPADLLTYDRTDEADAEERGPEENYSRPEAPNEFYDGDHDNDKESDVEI

As a reminder, the IC50 is the concentration that gives 50% inhibition. Low values mean higher potency, high ones lower potency. Consider `COc1ccc2nc(NC(=O)CCCCCCC(=O)NO)sc2c1`, for which the 50% inhibitory concentration (IC50) in the assay on NCI-H460 was 1.25 µg/mL (≈ 3.56 µM); with MCF7, 1.85 µg/mL (≈ 5.26 µM); in the assay on PC-3 it was 1.56 µg/mL (≈ 4.44 µM); with ASPC1, 0.79 µg/mL (≈ 2.25 µM); with SW-620, 0.96 µg/mL (≈ 2.73 µM). Besides, the inhibition entry in assay [1], in [2], in assay [3] and in [4] was “Active” in each case.
Consider `Cc1ccc2nc(NC(=O)CCCCC(=O)NO)sc2c1`, for which the IC50 turned out to be 11 µg/mL (≈ 35.7 µM) in the assay with NCI-H460; 4.27 µg/mL (≈ 13.9 µM) in the assay on MCF7; 6.23 µg/mL (≈ 20.3 µM) in the assay with PC-3; 13.3 µg/mL (≈ 43.4 µM) in the assay on ASPC1; 4.69 µg/mL (≈ 15.3 µM) with SW-620. Moreover, the inhibition result in assay [1], in assay [2], in assay [3] and in assay [4] was “inactive” each time.
For the compound `O=C(CCCCC(=O)Nc1nc2ccccc2s1)NO`, the concentration for half-maximal inhibition (IC50) turned out to be 14.4 µg/mL (≈ 49.1 µM) in the assay on NCI-H460; 4.02 µg/mL (≈ 13.7 µM) in the assay on MCF7; 12.5 µg/mL (≈ 42.6 µM) in the assay with PC-3; 10.2 µg/mL (≈ 34.7 µM) with ASPC1; 7.85 µg/mL (≈ 26.8 µM) in the assay on SW-620. Besides, the inhibition entry in assay [1], in assay [2], in [3] and in assay [4] was “inactive” throughout.
With `O=C(CCCCCCC(=O)Nc1nc2ccc([N+](=O)[O-])cc2s1)NO`, the IC50 turned out to be 1.9 µg/mL (≈ 5.19 µM) in the assay on NCI-H460; 3.83 µg/mL (≈ 10.5 µM) with MCF7; 1.28 µg/mL (≈ 3.49 µM) in the assay on PC-3; 1.65 µg/mL (≈ 4.5 µM) with ASPC1; 0.29 µg/mL (≈ 0.791 µM) with SW-620. The inhibition result in assay [1], in assay [2], in assay [3] and in assay [4] was “Active” each time.
Regarding `O=C(CCCCCCC(=O)Nc1nc2ccccc2s1)NO`, the concentration for half-maximal inhibition (IC50) with NCI-H460 worked out at 5.71 µg/mL (≈ 17.8 µM); in the assay on MCF7, 6.61 µg/mL (≈ 20.6 µM); with PC-3 it was 5.44 µg/mL (≈ 16.9 µM); in the assay on ASPC1, 5.69 µg/mL (≈ 17.7 µM); in the assay on SW-620 it was 4.01 µg/mL (≈ 12.5 µM). Moreover, the inhibition entry in [1], in assay [2], in assay [3] and in assay [4] was “Active” in each case.
Consider `COc1ccc2nc(NC(=O)CCCCC(=O)NO)sc2c1`, for which the IC50 with NCI-H460 is 21.4 µg/mL (≈ 66.2 µM); with MCF7, 5.91 µg/mL (≈ 18.3 µM); in the assay on PC-3, 15.3 µg/mL (≈ 47.3 µM); in the assay with ASPC1 it was 23.9 µg/mL (≈ 74 µM); in the assay with SW-620, 9.07 µg/mL (≈ 28 µM). The inhibition entry in assay [1], in assay [2], in assay [3] and in assay [4] was “inactive” throughout.
For the compound `CS(=O)(=O)c1ccc2nc(NC(=O)CCCCCCC(=O)NO)sc2c1`, the IC50 with NCI-H460 amounted to 6.54 µg/mL (≈ 16.4 µM); with MCF7 it was 15.3 µg/mL (≈ 38.4 µM); with PC-3 it was 5.69 µg/mL (≈ 14.2 µM); with ASPC1, 13.5 µg/mL (≈ 33.8 µM); in the assay with SW-620 it was 5.42 µg/mL (≈ 13.6 µM). The inhibition entry in assay [1], in assay [2], in assay [3] and in assay [4] was “inactive” in each case.
In the case of `CCOc1ccc2nc(NC(=O)CCCCCCC(=O)NO)sc2c1`, the 50% inhibitory concentration (IC50) in the assay with NCI-H460 came out at 6.58 µg/mL (≈ 18 µM); in the assay on MCF7 it was 11.6 µg/mL (≈ 31.8 µM); in the assay on PC-3, 16.9 µg/mL (≈ 46.2 µM); with ASPC1 it was 9.88 µg/mL (≈ 27 µM); in the assay with SW-620 it was 10.4 µg/mL (≈ 28.5 µM). For the same compound, the inhibition result in [1], in [2], in [3] and in [4] was “inactive” throughout.
`Cc1ccc2nc(NC(=O)CCCCCCC(=O)NO)sc2c1`: the concentration for half-maximal inhibition (IC50) in the assay with NCI-H460 stood at 0.84 µg/mL (≈ 2.5 µM); in the assay with MCF7, 1.6 µg/mL (≈ 4.77 µM); in the assay on PC-3, 0.53 µg/mL (≈ 1.58 µM); in the assay on ASPC1, 0.54 µg/mL (≈ 1.61 µM); in the assay with SW-620, 0.56 µg/mL (≈ 1.67 µM). The inhibition result in assay [1], in assay [2], in [3] and in assay [4] was “Active” each time.
For the compound `O=C(CCCCC(=O)Nc1nc2ccc([N+](=O)[O-])cc2s1)NO`, the IC50 in the assay with NCI-H460, in the assay on MCF7, with PC-3, in the assay with ASPC1 and in the assay with SW-620 was over 30 µg/mL each time. Also, the inhibition entry in assay [1], in assay [2], in assay [3] and in assay [4] was “inactive” each time.
With `CS(=O)(=O)c1ccc2nc(NC(=O)CCCCC(=O)NO)sc2c1`, the IC50 with NCI-H460, in the assay on MCF7, in the assay with PC-3, with ASPC1 and in the assay with SW-620 was over 30 µg/mL each time. Besides, the inhibition entry in [1], in assay [2], in assay [3] and in assay [4] was “inactive” in each case.
In the assay with PC-3, `O=C(CCCCCCC(=O)Nc1ccccc1)NO` [VORINOSTAT] yielded an IC50 of 0.94 µg/mL (≈ 3.56 µM).
With `CCOc1ccc2nc(NC(=O)CCCCC(=O)NO)sc2c1`, the IC50 turned out to be 7.96 µg/mL (≈ 23.6 µM) with NCI-H460; 8.72 µg/mL (≈ 25.8 µM) in the assay on MCF7; 6.69 µg/mL (≈ 19.8 µM) with PC-3; 16.7 µg/mL (≈ 49.5 µM) in the assay with ASPC1; 9.26 µg/mL (≈ 27.4 µM) in the assay on SW-620. The inhibition entry in assay [1], in assay [2], in assay [3] and in assay [4] was “inactive” in each case.
